The target of data set [1] is T1, Nuclear receptor ROR-beta (Homo sapiens, UniProt Q92753).
T1 sequence (Q92753 whole entry): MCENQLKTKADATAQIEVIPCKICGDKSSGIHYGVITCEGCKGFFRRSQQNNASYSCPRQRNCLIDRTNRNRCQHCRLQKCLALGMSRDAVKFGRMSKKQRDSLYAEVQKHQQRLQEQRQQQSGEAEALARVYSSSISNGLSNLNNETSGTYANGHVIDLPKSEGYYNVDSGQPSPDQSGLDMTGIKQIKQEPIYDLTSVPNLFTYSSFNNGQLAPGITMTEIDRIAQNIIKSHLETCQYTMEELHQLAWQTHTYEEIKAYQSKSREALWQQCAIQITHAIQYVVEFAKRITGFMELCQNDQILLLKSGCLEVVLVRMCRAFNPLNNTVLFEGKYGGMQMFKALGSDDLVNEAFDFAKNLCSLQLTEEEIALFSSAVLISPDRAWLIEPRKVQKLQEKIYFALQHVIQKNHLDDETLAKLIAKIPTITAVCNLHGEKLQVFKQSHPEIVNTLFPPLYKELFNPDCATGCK
The experiment in a line: Inverse agonist activity at human RORbeta assessed as dissociation constant by thermofluor assay. (In general: In DSF a fluorescence change marks the thermal transition of the protein.)

Data set [2] addresses T2, Nuclear receptor ROR-gamma (Homo sapiens, UniProt P51449).
T2 sequence (P51449 whole entry): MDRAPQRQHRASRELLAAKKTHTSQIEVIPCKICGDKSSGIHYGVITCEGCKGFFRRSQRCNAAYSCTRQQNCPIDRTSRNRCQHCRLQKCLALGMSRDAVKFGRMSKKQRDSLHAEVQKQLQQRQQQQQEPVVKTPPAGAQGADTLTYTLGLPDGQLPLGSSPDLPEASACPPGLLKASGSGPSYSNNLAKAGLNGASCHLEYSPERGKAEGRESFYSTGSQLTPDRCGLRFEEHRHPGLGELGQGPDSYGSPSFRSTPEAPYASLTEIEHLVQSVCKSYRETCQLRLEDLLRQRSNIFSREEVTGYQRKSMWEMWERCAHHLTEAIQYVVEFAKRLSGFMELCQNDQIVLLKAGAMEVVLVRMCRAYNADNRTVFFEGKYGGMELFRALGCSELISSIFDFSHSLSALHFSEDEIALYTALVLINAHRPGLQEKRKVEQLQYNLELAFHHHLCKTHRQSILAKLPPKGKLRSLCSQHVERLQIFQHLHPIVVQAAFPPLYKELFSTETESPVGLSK
The experiment in a line: Inverse agonist activity at N-terminal his-tagged wild type human RORgammat LBD domain expressed in Escherichia coli assessed as dissociation constant by thermofluor assay.

For data set [3], the target named is T3, Nuclear receptor subfamily 1 group I member 2 (Homo sapiens, UniProt O75469).
T3 sequence (O75469 whole entry): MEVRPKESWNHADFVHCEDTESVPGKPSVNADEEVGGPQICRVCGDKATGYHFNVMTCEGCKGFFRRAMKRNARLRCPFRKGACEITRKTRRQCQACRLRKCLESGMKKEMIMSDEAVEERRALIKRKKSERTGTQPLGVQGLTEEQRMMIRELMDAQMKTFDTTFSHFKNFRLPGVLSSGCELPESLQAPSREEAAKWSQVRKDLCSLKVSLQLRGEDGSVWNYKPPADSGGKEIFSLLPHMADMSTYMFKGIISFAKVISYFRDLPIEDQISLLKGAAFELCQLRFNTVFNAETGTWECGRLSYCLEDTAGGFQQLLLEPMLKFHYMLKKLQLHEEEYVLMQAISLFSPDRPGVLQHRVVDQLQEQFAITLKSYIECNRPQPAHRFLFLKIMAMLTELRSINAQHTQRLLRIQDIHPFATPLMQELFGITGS
As to the kind of experiment: Activation of human PXR at 1 uM relative to control. In kind it is toxicity.

For data set [4], the target named is T4, PXR (Homo sapiens, UniProt O75469).
T4 sequence (O75469 whole entry): T3 sequence (O75469 whole entry)
As to the kind of experiment: Activation of human PXR at 5 uM relative to control. Format: toxicity. The note with it: read-out: Activity.

A short description of data set [5]: Cmax in male Sprague-Dawley rat at 1 mg/kg, iv or 5 mg/kg, po measured 24 hrs post dose by LC-MS/MS analysis. In kind it is ADME, organism-based. The conditions noted are these: in vivo.
The target in data set [6] is T2, Nuclear receptor ROR-gamma. As to the kind of experiment: Inverse agonist activity at RORgammat in human whole blood assessed as IL-17A production incubated for 1 hrs by ELISA analysis. In kind it is tissue-based. (In general: ELISA stands for enzyme-linked immunosorbent assay.)
A short description of data set [7]: Aqueous solubility of the compound at pH 2. The note with it: aqueous solution. In kind it is physicochemical.
Data set [8] can be described thus: Aqueous solubility of the compound at pH 7. Format: physicochemical. The conditions noted are these: aqueous solution.
Data set [9] in a line: Solubility of compound in SGF. Format: physicochemical.
In data set [10] the target is Cytochrome P450 3A4 (Homo sapiens, UniProt P08684). The experiment in a line: Induction of CYP3A4 in human hepatocytes at 10 uM relative to control. Format: ADME, cell-based, Hepatocyte.
Sequence of Cytochrome P450 3A4 (P08684 whole entry): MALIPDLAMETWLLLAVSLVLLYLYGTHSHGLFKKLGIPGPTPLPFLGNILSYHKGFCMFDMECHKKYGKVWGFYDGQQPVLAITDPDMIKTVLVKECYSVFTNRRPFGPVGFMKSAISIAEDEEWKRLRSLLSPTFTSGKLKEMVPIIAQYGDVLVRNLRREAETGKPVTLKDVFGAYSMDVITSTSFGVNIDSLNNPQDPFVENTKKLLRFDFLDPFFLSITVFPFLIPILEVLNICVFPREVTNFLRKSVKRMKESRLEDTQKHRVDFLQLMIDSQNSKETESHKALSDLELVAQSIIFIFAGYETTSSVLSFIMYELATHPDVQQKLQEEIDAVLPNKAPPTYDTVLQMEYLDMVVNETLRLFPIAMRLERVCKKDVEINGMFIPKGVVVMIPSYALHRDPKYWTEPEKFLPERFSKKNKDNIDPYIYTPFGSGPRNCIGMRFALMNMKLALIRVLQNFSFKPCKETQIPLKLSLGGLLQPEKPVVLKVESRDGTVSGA
Data set [11] in a line: Solubility of compound in FaSSIF. In kind it is physicochemical.
Data set [12] has as its target T4, PXR. The experiment in a line: Activation of human PXR at 10 uM relative to control. In kind it is toxicity. The conditions noted are these: read-out: Activity.
Data set [13] concerns the target T2, Nuclear receptor ROR-gamma. As to the kind of experiment: Inverse agonist activity at human RORgammat by mammalian 1-hybrid assay.
Data set [14] can be described thus: Drug uptake in male rat plasma at 50 mg/kg, po after 5 days. In kind it is ADME, organism-based. The note with it: in vivo, 120 h, time 5 day.

The source of these data is ChEMBL document CHEMBL6134884, “Identification of JNJ-61803534, a RORγt Inverse Agonist for the Treatment of Psoriasis” (J Med Chem, 2025).

In brackets after ≈: the same amount, converted by molar mass.

Regarding `CCN(C(=O)c1nc(C(=O)NCC(C)(C)O)sc1-c1ccc(C(O)(C(F)(F)F)C(F)(F)F)c(Cl)c1Cl)C1CCC1`, the figures for the Kd in data set [1] and in data set [2] were 1100 nM and 0.2 nM, respectively. Further, the Activity in data set [3] is given as 10%. Further, the activity at 5 µM in data set [4] was 21%.

Regarding `CCN(CC)C(=O)c1nc(C(=O)N2C[C@H](O)C[C@H](O)C2)sc1-c1ccc(C(O)(C(F)(F)F)C(F)(F)F)c(Cl)c1Cl`, the Cmax (in general, the maximum level reached in the sampled fluid or tissue) in [5] turned out to be 100 nM. Moreover, the Kd (as a rule, a measure of binding affinity in units of concentration) in [1] is 13000 nM. Further, the IC50 (commonly the concentration needed to halve the response being measured) in data set [6] amounted to 190 nM. Moreover, the figures for the solubility in [7] and in data set [8] were 52 µM (≈ 33.2 µg/mL) and 41 µM (≈ 26.2 µg/mL), respectively. Besides, the Activity in data set [3] amounted to 2.7%. Further, the activity at 5 µM in data set [4] was 4.7%.

Regarding `Cc1cc(C(O)(C(F)(F)F)C(F)(F)F)ccc1-c1sc(C(=O)NCC(C)(C)O)nc1C(=O)N1CCC[C@@H]1C`, the Kd in data set [1] stood at 15000 nM. In addition, the IC50 in [6] was 530 nM. In addition, the solubility (usually how much of the substance goes into solution per volume) in data set [9] is 63 µM (≈ 35.8 µg/mL); in data set [7], 35 µM (≈ 19.9 µg/mL); in data set [8], 86 µM (≈ 48.8 µg/mL); in data set [11], 250 µM (≈ 142 µg/mL). Further, the Activity came to 16% in data set [10] and 12% in data set [3]. In addition, the activity at 10 µM in data set [12] came to 31%.

Turning to `C[C@H]1CC(F)(F)CN1C(=O)c1nc(C(=O)NCC(C)(C)O)sc1-c1ccc(C(O)(C(F)(F)F)C(F)(F)F)c(Cl)c1Cl`, in [1], the Kd was 2300 nM. The IC50 in data set [6] was found to be 120 nM. Also, the solubility in [7] and in [8] was under 4 µM throughout. The compound also returned an Activity in data set [3] of 27%. In data set [4], the activity at 5 µM is 50%.

In the case of `C[C@H]1CCCN1C(=O)c1nc(C(=O)NCC(C)(C)O)sc1-c1ccc(C(O)(C(F)(F)F)C(F)(F)F)cc1C(F)F`, the Kd in data set [1] came out at 13000 nM. In addition, the solubility was found to be 22 µM (≈ 13.3 µg/mL) in data set [9], 12 µM (≈ 7.24 µg/mL) in [7], 13 µM (≈ 7.85 µg/mL) in data set [8] and 99 µM (≈ 59.7 µg/mL) in data set [11]. Moreover, the Activity in data set [10] was 33%; in data set [3], 27%. Moreover, the activity at 10 µM in data set [12] turned out to be 74%.

As for `Cc1c(S(N)(=O)=O)cc(-c2ccc(S(=O)(=O)NC(C)(C)C)cc2)n1CC1CCCCC1`, in [13], the IC50 was found to be 1780 nM.

In the case of `C[C@H]1CCCCN1C(=O)c1nc(C(=O)NCC(C)(C)O)sc1-c1ccc(C(O)(C(F)(F)F)C(F)(F)F)cc1C(F)F`, the Kd in [1] is 850 nM. Moreover, the solubility was under 4 µM in [9], under 4 µM in data set [7], under 4 µM in data set [8] and 14 µM (≈ 8.65 µg/mL) in data set [11]. This compound displayed an Activity in [3] of 28%. For the same compound, the activity at 10 µM in data set [12] amounted to 84%.

Regarding `C[C@H]1C[C@@H](F)CCN1C(=O)c1nc(C(=O)NCC(C)(C)O)sc1-c1ccc(C(O)(C(F)(F)F)C(F)(F)F)c(Cl)c1Cl`, the Kd in data set [1] came out at 1000 nM. Moreover, the IC50 in data set [6] came out at 210 nM. Further, the solubility in [7] and in data set [8] was under 4 µM in each case. Besides, in data set [3], the Activity is reported as 14%. Further, the activity at 5 µM in data set [4] turned out to be 40%.

Regarding `CN(C(=O)c1nc(C(=O)NCC(C)(C)O)sc1-c1ccc(C(O)(C(F)(F)F)C(F)(F)F)c(Cl)c1Cl)C1CCC1`, the Kd in data set [1] stood at 2300 nM; in data set [2], 0.4 nM. The compound also yielded an IC50 in data set [13] of 9.4 nM. This compound yielded an Activity in data set [3] of 1.9%. Also, in data set [4], the activity at 5 µM stood at 9.1%.

For `C[C@H]1CCCCN1C(=O)c1nc(C(=O)NCC(C)(C)O)sc1-c1ccc(C(O)(C(F)(F)F)C(F)(F)F)cc1Cl`, the Kd stood at 430 nM in data set [1] and 0.058 nM in data set [2]. In [6], the IC50 is 81 nM. Also, the solubility was under 4 µM in [9], under 4 µM in data set [7], under 4 µM in [8] and 77 µM (≈ 46.4 µg/mL) in data set [11]. Further, in data set [3], the Activity was 13%. The activity at 10 µM in [12] was found to be 25%.

`Cc1c(C(N)=O)cc(-c2ccc(C(O)(C(F)(F)F)C(F)(F)F)cc2)n1CC1CCCCC1` returned an IC50 in data set [13] of 1700 nM.

Turning to `CCN(CC)C(=O)c1nc(C(=O)NCC(C)(C)O)sc1-c1ccc(C(O)(C(F)(F)F)C(F)(F)F)c(Cl)c1Cl`, the Kd in data set [1] was found to be 3500 nM. The solubility in [7] and in data set [8] was under 4 µM each time. Also, the Drug uptake result in data set [14] was “Active”. The Activity was 16% in [10] and 32% in data set [3]. Besides, the activity at 5 µM in [4] is 76%.

Regarding `CC(C)(O)CNC(=O)c1nc(C(=O)N2CCC(F)CC2)c(-c2ccc(C(O)(C(F)(F)F)C(F)(F)F)c(Cl)c2Cl)s1`, in data set [1], the Kd was 1900 nM. Besides, the IC50 in [6] stood at 890 nM. Further, the solubility in [7] and in data set [8] was under 4 µM each time. Also, the Activity in [3] stood at 1.5%. The activity at 5 µM in data set [4] was 14%.

As for `C[C@H]1CCCN1C(=O)c1nc(C(=O)NCC(C)(C)O)sc1-c1ccc(C(O)(C(F)(F)F)C(F)(F)F)cc1Cl`, the Kd is 4900 nM in [1] and 0.63 nM in [2]. Further, the IC50 in data set [6] stood at 240 nM. For the same compound, the solubility was 6.3 µM (≈ 3.7 µg/mL) in data set [9], 6.3 µM (≈ 3.7 µg/mL) in [7], under 4 µM in [8] and 130 µM (≈ 76.4 µg/mL) in data set [11]. The Activity in [10] was 11%; in data set [3], 3.6%. Further, in [12], the activity at 10 µM came to 27%.

Turning to `Cc1cc(C(O)(C(F)(F)F)C(F)(F)F)ccc1-c1sc(C(=O)NCC(C)(C)O)nc1C(=O)N1CCCC[C@@H]1C`, the Kd in data set [1] came to 1400 nM; in data set [2], 0.25 nM. Further, in data set [6], the IC50 came out at 160 nM. Besides, the solubility is under 4 µM in data set [9], under 4 µM in data set [7], under 4 µM in data set [8] and 4.6 µM (≈ 2.68 µg/mL) in data set [11]. The Activity in [10] was determined as 10%; in data set [3], 8%. In addition, the activity at 10 µM in [12] is 24%.

In the case of `C[C@H](NS(=O)(=O)c1ccc(-c2sc(C(=O)NCC(C)(C)O)nc2C(=O)N2CCC(F)CC2)c(Cl)c1Cl)C(F)(F)F`, the Activity in [3] is on record as 13%.
